The values below come from PMC4180036 (Clinical pharmacology and therapeutics, 2014).

The nature of series [1]: Population pharmacokinetic modeling and covariate analysis. It counts as in vivo, human.
The conditions of series [2]: in vivo.
The mark [3] stands for this setting: Base model (n=26), Bootstrap median (95% CI).
Setting [4] is: Base model (n=26), Estimate (CV %).
Where [5] appears, read: Covariate model (LBM, n=26), Bootstrap median (95% CI).
The mark [6] stands for this setting: Covariate model (LBM, n=26), Estimate (CV %).

For `C#Cc1cccc(Nc2ncnc3cc(OCCOC)c(OCCO)cc23)c1` [OSI-420], the “θCLM, metabolite clearance” value in series [1] (setting [3]) is 23.60 (4.76, 47.91) L/h; in series [1] (setting [4]), 21.5 (8.9) L/h; in series [1] (setting [5]), 27.80 (4.04, 55.60) L/h; in series [1] (setting [6]), 32.6 (10.4) L/h. The “θV2, metabolite volume of distribution” value in series [1] (setting [3]) was 7.67 (0.09, 21.91) L; in series [1] (setting [4]), 7.18 (62.8) L; in series [1] (setting [5]), 8.99 (0.04, 26.11) L; in series [1] (setting [6]), 11.6 (12.1) L. Moreover, the “OSI-420 detection in plasma” value in series [2] is recorded as “ƛ OSI-420 was undetectable in one patient treated on Arm B”. In addition, the “measurable OSI-420 in plasma” value in series [2] was “no measureable OSI-420”.
